According to ChEMBL document CHEMBL1154655, “Curcumin analog cytotoxicity against breast cancer cells: exploitation of a redox-dependent mechanism” (Bioorg Med Chem Lett, 2009):
pIC50: −log10 of the molar value.

What was measured:
MDA-MB-435 = experiment: Cytotoxicity against human MDA-MB-435 cells; format: functional, cell-based
A549 = experiment: Inhibition of NF-kappaB nuclear translocation in human A549 cells; format: functional, cell-based

Row | pIC50 (A549) | SMILES | pIC50 (MDA-MB-435)
1 |  | O=C1/C(=C/c2ccccn2)CNC/C1=C\c1ccccn1 | 6.00
2 | 4.89 | COc1cc(/C=C/C(=O)CC(=O)/C=C/c2ccc(O)c(OC)c2)ccc1O [CURCUMIN] | 
3 | 5.89 | O=C1/C(=C/c2ccccc2F)CNC/C1=C\c1ccccc1F | 5.82
